Reference: US20250340552A1, “COMPOUNDS, COMPOSITIONS AND METHODS OF TREATING DISORDERS” (HOTSPOT THERAPEUTICS, INC., priority 2022, published 2025)
Where two headings read alike, the source gives them in different places.

Biological target: T1, Cbl-B (Homo sapiens, UniProt Q13191)
T1 construct: MSD-Based Assay for Degradation of Cbl-B in THP-1 Cells; endogenous in cells; host or cells: THP-1 (title) / Jurkat (protocol text)
Test: MSD-based assay for degradation of Cbl-B in THP-1 cells
Assay type: cell-based
Description: MSD-Based Assay for Degradation of Cbl-B in THP-1 Cells
Assay plates were then shaken at 600 rpm for 5 minutes, followed by incubation for 24 hours in the 37° C. TC incubator. […] Cell debris was then spun down at maximum speed (about 3200 g) for 30 min and lysates frozen in the −80° C. fridge. Meanwhile, MSD plates (L15XA-3) were coated overnight at 4° C. with 1 ug/mL capture antibody (Anti-Cbl-B antibody, 246C5a and Mouse mAB, ab54362). […] Blocking buffer was 3% Blocker A (MSD, R93BA-4) in TBST. Plates were washed 3× with 150 ul/well of 1×TBST and sample lysates (70 ul/well) then added, followed by shaking for 1 hr at RT, 600 rpm. […] Plates were again washed 3× with 150 ul/well of 1×TBST, followed by addition of Secondary Detection antibody, SULFO-TAG anti-species antibody (Anti Rabbit Antibody (R32AB-5) MSD, R32AB-1) at a final concentration of 1 ug/ml and 25 uL/well, followed by shaking for 1 hr at RT, 600 rpm. Plates were again washed 3× with 150 ul/well of 1×TBST, followed by addition of 1×MSD reading buffer (MSD, R92TC-2), 150 ul/well, diluted from 4× with water.
Compound Dmax were binned into A through D as follows: A indicates >70%, B indicates 50-70%, C indicates 30-50%, D indicates <30%.

[1] = Cbl-B degradation, Jurkat cells seeded (heading: THP-1 cells), 24 hours incubation, MSD readout
[2] = Cbl-B degradation, Jurkat cells seeded (heading: THP-1 cells), 24 hours incubation, MSD readout, read-out: Dmax

T1 sequence (Q13191 whole entry): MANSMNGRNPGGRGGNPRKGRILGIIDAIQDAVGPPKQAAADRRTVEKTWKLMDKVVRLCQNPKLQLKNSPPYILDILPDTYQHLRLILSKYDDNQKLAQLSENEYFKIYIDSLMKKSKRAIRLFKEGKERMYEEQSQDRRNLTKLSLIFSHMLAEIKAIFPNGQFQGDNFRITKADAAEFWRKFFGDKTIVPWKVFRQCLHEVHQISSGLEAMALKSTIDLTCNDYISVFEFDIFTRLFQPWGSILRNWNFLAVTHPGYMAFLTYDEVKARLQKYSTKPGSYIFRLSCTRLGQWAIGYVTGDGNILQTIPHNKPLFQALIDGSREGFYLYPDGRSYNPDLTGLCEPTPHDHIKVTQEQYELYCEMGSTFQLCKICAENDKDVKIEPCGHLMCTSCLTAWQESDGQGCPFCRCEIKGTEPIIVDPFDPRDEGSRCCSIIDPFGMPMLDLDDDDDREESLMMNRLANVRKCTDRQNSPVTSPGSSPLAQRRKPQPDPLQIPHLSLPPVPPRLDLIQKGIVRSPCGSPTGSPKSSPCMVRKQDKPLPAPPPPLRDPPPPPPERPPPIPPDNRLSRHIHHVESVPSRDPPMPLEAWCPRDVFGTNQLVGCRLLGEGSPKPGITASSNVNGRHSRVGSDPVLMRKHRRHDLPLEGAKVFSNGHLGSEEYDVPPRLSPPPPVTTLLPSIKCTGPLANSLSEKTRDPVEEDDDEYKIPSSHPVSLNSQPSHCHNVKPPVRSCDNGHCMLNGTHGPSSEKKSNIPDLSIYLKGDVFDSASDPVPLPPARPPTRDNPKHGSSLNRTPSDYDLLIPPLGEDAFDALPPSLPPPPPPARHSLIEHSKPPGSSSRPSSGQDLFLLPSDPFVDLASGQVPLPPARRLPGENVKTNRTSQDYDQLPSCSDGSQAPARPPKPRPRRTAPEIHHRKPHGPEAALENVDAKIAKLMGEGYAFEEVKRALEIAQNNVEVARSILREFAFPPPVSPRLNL

Structure (SMILES)	DC50 [1] [nM]	Dmax (THP-1) [%]	Dmax [2] [%]
CN(CCOC1CCN(Cc2cc(C(F)(F)F)c3cn(-c4cccc([C@H](c5nncn5C)C5CCC5)c4)c(=O)n3c2)CC1)C(=O)c1ccc(N2CC3CC(C2)N3c2ccc3c(c2)CN([C@@H]2CCC(=O)NC2=O)C3=O)cc1 (single isomer, unassigned) [Compound 89]	1000 to 10000	30 to 50	
CN(CCOC1CCN(Cc2cc(C(F)(F)F)c3cn(-c4cccc([C@H](c5nncn5C)C5CCC5)c4)c(=O)n3c2)CC1)C(=O)c1ccc(N2CC3CC(C2)N3c2ccc3c(c2)CN([C@H]2CCC(=O)NC2=O)C3=O)cc1 (single isomer, unassigned) [Compound 90]	1000 to 10000		30 to 50
Cn1cnnc1[C@@H](c1cccc(-n2cc3c(C(F)(F)F)cc(CN4CCC(OCc5ccc(CN6CCN(c7ccc8c(c7)CN([C@@H]7CCC(=O)NC7=O)C8=O)CC6)cc5)CC4)cn3c2=O)c1)C1CCC1 (single isomer, unassigned) [Compound 91]	300 to 1000	30 to 50	
Cn1cnnc1[C@@H](c1cccc(-n2cc3c(C(F)(F)F)cc(CN4CCC(OCc5ccc(CN6CCN(c7ccc8c(c7)CN([C@H]7CCC(=O)NC7=O)C8=O)CC6)cc5)CC4)cn3c2=O)c1)C1CCC1 (single isomer, unassigned) [Compound 92]	< 30		> 70
Cn1cnnc1CC1(c2cccc(-n3cc4c(C(F)(F)F)cc(CN5CCC(OCc6ccc(CN7CCN(c8ccc9c(c8)CN([C@@H]8CCC(=O)NC8=O)C9=O)CC7)cc6)CC5)cn4c3=O)c2)COC1 (single isomer, unassigned) [Compound 93]	30 to 300		50 to 70
Cn1cnnc1CC1(c2cccc(-n3cc4c(C(F)(F)F)cc(CN5CCC(OCc6ccc(CN7CCN(c8ccc9c(c8)CN([C@H]8CCC(=O)NC8=O)C9=O)CC7)cc6)CC5)cn4c3=O)c2)COC1 (single isomer, unassigned) [Compound 94]	< 30		> 70
Cn1cnnc1[C@@H](c1cccc(-n2cc3c(C(F)(F)F)cc(-c4nccn4CCOCCN4CCC(CN5CCN(c6ccc7c(c6)CN([C@H]6CCC(=O)NC6=O)C7=O)CC5)CC4)cn3c2=O)c1)C1CCC1 (single isomer, unassigned) [Compound 98]	> 10000		< 30
Cn1cnnc1CC1(c2cccc(-n3cc4c(C(F)(F)F)cc(-c5nccn5CCOCCN5CCC(CN6CCN(c7ccc8c(c7)CN([C@H]7CCC(=O)NC7=O)C8=O)CC6)CC5)cn4c3=O)c2)COC1 (single isomer, unassigned) [Compound 100]	> 10000		< 30
CN(CCO[C@@H]1CCCN(Cc2cc(C(F)(F)F)c3cn(-c4cccc([C@H](c5nncn5C)C5CCC5)c4)c(=O)n3c2)C1)C(=O)c1ccc(N2CCN(c3ccc4c(c3)CN([C@@H]3CCC(=O)NC3=O)C4=O)CC2)cc1 (single isomer, unassigned) [Compound 103]	300 to 1000		
CN(CCO[C@H]1CCCN(Cc2cc(C(F)(F)F)c3cn(-c4cccc([C@H](c5nncn5C)C5CCC5)c4)c(=O)n3c2)C1)C(=O)c1ccc(N2CCN(c3ccc4c(c3)CN([C@@H]3CCC(=O)NC3=O)C4=O)CC2)cc1 (single isomer, unassigned) [Compound 105]	30 to 300		
CN(CCOC1CCN(Cc2cc(C(F)(F)F)c3cn(-c4cccc([C@H](c5nncn5C)C5CCC5)c4)c(=O)n3c2)CC1)C(=O)c1ccc(C2CCN(c3ccc4c(c3)CN([C@@H]3CCC(=O)NC3=O)C4=O)CC2)cc1 (single isomer, unassigned) [Compound 107]	30 to 300	50 to 70	
CN(CCOC1CCN(Cc2cc(C(F)(F)F)c3cn(-c4cccc([C@H](c5nncn5C)C5CCC5)c4)c(=O)n3c2)CC1)C(=O)c1ccc(C2CCN(c3ccc4c(c3)CN([C@H]3CCC(=O)NC3=O)C4=O)CC2)cc1 (single isomer, unassigned) [Compound 108]	< 30		50 to 70
Cn1cnnc1[C@@H](c1cccc(-n2cc3c(C(F)(F)F)cc(CN4CCC(CCN5CCC(CN6CCN(c7ccc8c(c7)CN([C@@H]7CCC(=O)NC7=O)C8=O)CC6)CC5)CC4)cn3c2=O)c1)C1CCC1 (single isomer, unassigned) [Compound 109]	30 to 300		
Cn1cnnc1[C@@H](c1cccc(-n2cc3c(C(F)(F)F)cc(CN4CCC(CCN5CCC(CN6CCN(c7ccc8c(c7)CN([C@H]7CCC(=O)NC7=O)C8=O)CC6)CC5)CC4)cn3c2=O)c1)C1CCC1 (single isomer, unassigned) [Compound 110]	< 30		> 70
Cn1cnnc1[C@@H](c1cccc(-n2cc3c(C(F)(F)F)cc(CN4CCC(CC(=O)N5CCC(CN6CCN(c7ccc8c(c7)CN([C@@H]7CCC(=O)NC7=O)C8=O)CC6)CC5)CC4)cn3c2=O)c1)C1CCC1 (single isomer, unassigned) [Compound 111]	30 to 300		50 to 70
Cn1cnnc1[C@@H](c1cccc(-n2cc3c(C(F)(F)F)cc(CN4CCC(CC(=O)N5CCC(CN6CCN(c7ccc8c(c7)CN([C@H]7CCC(=O)NC7=O)C8=O)CC6)CC5)CC4)cn3c2=O)c1)C1CCC1 (single isomer, unassigned) [Compound 112]	< 30		> 70
Cn1cnnc1[C@@H](c1cccc(-n2cc3c(C(F)(F)F)cc(CN4CCC(OCCc5ccc(CN6CCN(c7ccc8c(c7)CN([C@@H]7CCC(=O)NC7=O)C8=O)CC6)cc5)CC4)cn3c2=O)c1)C1CCC1 (single isomer, unassigned) [Compound 115]	> 10000		< 30
CN(CC1CCN(Cc2cc(C(F)(F)F)c3cn(-c4cccc([C@H](c5nncn5C)C5CCC5)c4)c(=O)n3c2)CC1)C(=O)c1ccc(N2CCN(c3ccc4c(c3)CN([C@@H]3CCC(=O)NC3=O)C4=O)CC2)cc1 (single isomer, unassigned) [Compound 117]	1000 to 10000		30 to 50
CN(CC1CCN(Cc2cc(C(F)(F)F)c3cn(-c4cccc([C@H](c5nncn5C)C5CCC5)c4)c(=O)n3c2)CC1)C(=O)c1ccc(N2CCN(c3ccc4c(c3)CN([C@H]3CCC(=O)NC3=O)C4=O)CC2)cc1 (single isomer, unassigned) [Compound 118]	< 30		> 70
CN(CCC(=O)N1CCC(CN2CCN(c3ccc4c(c3)CN([C@@H]3CCC(=O)NC3=O)C4=O)CC2)CC1)Cc1cc(C(F)(F)F)c2cn(-c3cccc([C@H](c4nncn4C)C4CCC4)c3)c(=O)n2c1 (single isomer, unassigned) [Compound 119]	> 10000		< 30
CN(CCC(=O)N1CCC(CN2CCN(c3ccc4c(c3)CN([C@H]3CCC(=O)NC3=O)C4=O)CC2)CC1)Cc1cc(C(F)(F)F)c2cn(-c3cccc([C@H](c4nncn4C)C4CCC4)c3)c(=O)n2c1 (single isomer, unassigned) [Compound 120]	30 to 300		50 to 70
Cn1cnnc1[C@@H](c1cccc(-n2cc3c(C(F)(F)F)cc(CN4CCN(CC(=O)N5CCC(CN6CCN(c7ccc8c(c7)CN([C@@H]7CCC(=O)NC7=O)C8=O)CC6)CC5)CC4)cn3c2=O)c1)C1CCC1 (single isomer, unassigned) [Compound 121]	30 to 300		50 to 70
Cn1cnnc1[C@@H](c1cccc(-n2cc3c(C(F)(F)F)cc(CN4CCN(CC(=O)N5CCC(CN6CCN(c7ccc8c(c7)CN([C@H]7CCC(=O)NC7=O)C8=O)CC6)CC5)CC4)cn3c2=O)c1)C1CCC1 (single isomer, unassigned) [Compound 122]	< 30		> 70
